One data set deals with Pseudomonas aeruginosa. Kind of data set: microbe, parasite or virus in culture. Particulars: CCM 3955, 24 h.
Data set [1] deals with Lipid bilayer. Briefly: Binding affinity to DOPG large unilamellar vesicle assessed as increase in fluorescence intensity at 5 mg/L after 10 mins by fluorescence assay relative to control.
The subject of data set [2] is Lipid bilayer. Briefly: Binding affinity to DOPG large unilamellar vesicle assessed as blue shift in emission maximum at 5 mg/L after 10 mins by fluorescence assay relative to control.
Data set [3] has as its system Lipid bilayer. Kind of data set: Binding affinity to DOPG large unilamellar vesicle assessed as Stern-Volmer quenching constant after 10 mins in presence of potassium iodide by fluorescence assay (reference value: 47.22 +/- 1.58 no_unit).
The next data set concerns J774.A1. Kind of data set: Cytotoxicity against mouse J774A.1 cells assessed as damage to cell membrane by measuring propidium iodide intake at 5 uM by spectrofluorometric analysis. To be noted: j774.a1, 5 µM. It is filed as cell-based.

Converted amounts (≈) assume the structure as drawn.

The molecule `O=C(O)c1cn(C2CC2)c2cc(N3CCNCC3)c(F)cc2c1=O` [CIPROFLOXACIN] registered an MIC against Pseudomonas aeruginosa of 4 µg/mL (≈ 12.1 µM). Regarding `CCCCCCCCCCCCCCOP(=O)(CCN(CCCN)CCCN)OC[C@H]1O[C@@H](n2cc(-c3ccco3)c(=O)[nH]c2=O)[C@H](O)[C@@H]1O` (stereo not given in full), the fold change (FC) in the data set with Lipid bilayer [1] is 3.5. Moreover, the Activity in the data set on Lipid bilayer [2] was 25 nm. Also, in the data set on Lipid bilayer [3], the KSV came out at 0.97. On to `CC[C@H](C)[C@H](NC(=O)CN)C(=O)NCC(=O)N[C@@H](C)C(=O)N[C@H](C(=O)N[C@@H](CC(C)C)C(=O)N[C@@H](CCCCN)C(=O)N[C@H](C(=O)N[C@@H](CC(C)C)C(=O)N[C@H](C(=O)N[C@H](C(=O)NCC(=O)N[C@@H](CC(C)C)C(=O)N1CCC[C@H]1C(=O)N[C@@H](C)C(=O)N[C@@H](CC(C)C)C(=O)N[C@H](C(=O)N[C@@H](CO)C(=O)N[C@@H](Cc1c[nH]c2ccccc12)C(=O)N[C@H](C(=O)N[C@@H](CCCCN)C(=O)N[C@@H](CCCNC(=N)N)C(=O)N[C@@H](CCCCN)C(=O)N[C@@H](CCCNC(=N)N)C(=O)N[C@@H](CCC(N)=O)C(=O)N[C@@H](CCC(N)=O)C(N)=O)[C@@H](C)CC)[C@@H](C)CC)[C@@H](C)O)[C@@H](C)O)C(C)C)C(C)C` [MELITTIN], for which, in the data set with J774.A1, the Activity result was “Toxic”.

The record behind these values is ChEMBL document CHEMBL4038308, “Lipophosphonoxins II: Design, Synthesis, and Properties of Novel Broad Spectrum Antibacterial Agents” (J Med Chem, 2017).
